Experimental data published in the NIST ThermoML archive (doi:10.1007/s10765-009-0602-6).
“And” between values parts separate entries of the source, which are not always exact repeats. Equal values may be shown once.

Assay: xn = mol fraction of the nth substance listed
Settings: Liquid, Other PVT measurement, x1 = 0.2607

N [ammonia] + O
Settings | mass density
508.07 K | 671.23 kg/m3
519.77 K | 649.65 kg/m3
545.62 K | 594.32 kg/m3
561.03 K | 552.58 kg/m3
565.36 K | 540.25 kg/m3
580.18 K | 476.26 kg/m3
584.95 K | 456.58 kg/m3
585.31 K | 120.03 kg/m3
594.14 K | 147.43 kg/m3
595.16 K | 376.89 kg/m3
597.36 K | 160.07 kg/m3
597.56 K | 342.19 kg/m3
598.33 K | 329 kg/m3
598.96 K | 320.33 kg/m3
599.42 K | 312.91 kg/m3
599.57 K | 311.19 kg/m3
599.67 K | 310.95 kg/m3
599.78 K | 308.35 kg/m3
599.89 K | 307.35 kg/m3
600.02 K | 305.44 kg/m3
600.17 K | 303.47 kg/m3
600.29 K | 301.94 kg/m3
600.48 K | 299.79 kg/m3
600.63 K | 297.6 kg/m3
600.81 K | 295.31 kg/m3
600.93 K | 292.97 kg/m3
601.05 K | 291.16 kg/m3
601.16 K | 188.05 kg/m3
601.34 K | 285.71 kg/m3
601.75 K | 195.99 kg/m3
602.05 K | 271.09 kg/m3
602.26 K | 206 kg/m3
602.45 K | 260.02 kg/m3
602.74 K | 214.83 kg/m3
602.85 K | 218.92 kg/m3
602.91 K | 243.98 kg/m3
602.96 K | 230.31 kg/m3 and 224.53 kg/m3
602.97 K | 227.54 kg/m3
